5 compounds from patent US12559481B2, “Quinoline derivatives” (ELANCO ANIMAL HEALTH GMBH, priority 2018, dated 2026) can be followed below.

Series [1] in a line: log P by HPLC on reversed phase columns (LC-MS Method 0).
Procedure: Measurement of log P values was performed according to EEC directive 79/831 Annex V.A8 by HPLC (High Performance Liquid Chromatography) on reversed phase columns with the following methods, instrument(s): Agilent 1100 LC system, Agilent MSD system, HTS PAL; Waters IClass Acquity UPLC, SQD2 (MS), PDA (LV). • ^[a] log P value is determined by measurement of LC-UV, in an acidic range, with 0.1% formic acid in water and acetonitrile as eluent (linear gradient from 10% acetonitrile to 95% acetonitrile). • ^[b] log P value is determined by measurement of LC-UV, in a neutral range, with 0.001 molar ammonium acetate solution in water and acetonitrile as eluent (linear gradient from 10% acetonitrile to 95% acetonitrile).
Calibration was done with straight-chain alkan-2-ones (with 3 to 16 carbon atoms) with known log P values (measurement of log P values using retention times with linear interpolation between successive alkanones). Lambda-max-values were determined using UV-spectra from 200 nm to 400 nm and the peak values of the chromatographic signals.
For series [2], the system named is Dirofilaria immitis third-stage larvae. The experiment in a line: In vitro assay 5: Dirofilaria immitis (DIROIM L4) larval motility. The conditions noted are these: 72 h, read-out: EC50 (reduction of motility).
In the next series the target is D. immitis Slo-1 (Dirofilaria immitis, UniProt I0DFK5). The series can be described thus: In vitro assay 2: D. immitis Slo-1, membrane potential in recombinant CHO cell line. The format is cell-based.
Chain of D. immitis Slo-1 (I0DFK5 1-1119): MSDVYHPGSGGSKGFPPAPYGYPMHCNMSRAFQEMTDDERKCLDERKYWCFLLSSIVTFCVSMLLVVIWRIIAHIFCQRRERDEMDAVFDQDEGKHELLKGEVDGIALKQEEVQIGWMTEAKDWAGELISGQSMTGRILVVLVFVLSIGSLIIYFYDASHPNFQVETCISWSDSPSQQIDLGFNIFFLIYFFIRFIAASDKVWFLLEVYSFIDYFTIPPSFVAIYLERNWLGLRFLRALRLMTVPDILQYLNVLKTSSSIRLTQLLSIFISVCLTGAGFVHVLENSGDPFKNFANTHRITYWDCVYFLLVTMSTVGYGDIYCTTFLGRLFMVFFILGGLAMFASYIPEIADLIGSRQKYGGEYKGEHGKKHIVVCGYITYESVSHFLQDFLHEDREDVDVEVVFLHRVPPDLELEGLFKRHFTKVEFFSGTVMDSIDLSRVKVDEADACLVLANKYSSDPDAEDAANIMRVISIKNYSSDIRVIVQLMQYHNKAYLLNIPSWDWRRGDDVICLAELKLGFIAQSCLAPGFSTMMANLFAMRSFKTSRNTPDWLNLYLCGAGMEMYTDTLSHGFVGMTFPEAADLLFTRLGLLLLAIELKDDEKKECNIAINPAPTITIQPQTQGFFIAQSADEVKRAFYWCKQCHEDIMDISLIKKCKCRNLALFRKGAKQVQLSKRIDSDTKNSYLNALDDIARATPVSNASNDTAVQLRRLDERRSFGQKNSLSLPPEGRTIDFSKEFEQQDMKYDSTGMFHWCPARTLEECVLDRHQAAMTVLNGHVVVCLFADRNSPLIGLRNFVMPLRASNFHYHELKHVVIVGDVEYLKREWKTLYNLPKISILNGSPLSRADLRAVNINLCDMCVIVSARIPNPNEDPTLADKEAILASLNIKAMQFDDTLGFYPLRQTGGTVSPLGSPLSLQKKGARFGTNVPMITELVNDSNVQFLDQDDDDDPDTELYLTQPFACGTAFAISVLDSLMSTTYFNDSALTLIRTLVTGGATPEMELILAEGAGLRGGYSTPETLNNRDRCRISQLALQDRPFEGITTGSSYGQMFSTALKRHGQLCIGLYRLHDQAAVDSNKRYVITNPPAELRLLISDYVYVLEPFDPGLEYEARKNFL
In the next series the target is C. elegans Slo-1a (Caenorhabditis elegans, UniProt Q95V25).
Chain of C. elegans Slo-1a (Q95V25 whole entry): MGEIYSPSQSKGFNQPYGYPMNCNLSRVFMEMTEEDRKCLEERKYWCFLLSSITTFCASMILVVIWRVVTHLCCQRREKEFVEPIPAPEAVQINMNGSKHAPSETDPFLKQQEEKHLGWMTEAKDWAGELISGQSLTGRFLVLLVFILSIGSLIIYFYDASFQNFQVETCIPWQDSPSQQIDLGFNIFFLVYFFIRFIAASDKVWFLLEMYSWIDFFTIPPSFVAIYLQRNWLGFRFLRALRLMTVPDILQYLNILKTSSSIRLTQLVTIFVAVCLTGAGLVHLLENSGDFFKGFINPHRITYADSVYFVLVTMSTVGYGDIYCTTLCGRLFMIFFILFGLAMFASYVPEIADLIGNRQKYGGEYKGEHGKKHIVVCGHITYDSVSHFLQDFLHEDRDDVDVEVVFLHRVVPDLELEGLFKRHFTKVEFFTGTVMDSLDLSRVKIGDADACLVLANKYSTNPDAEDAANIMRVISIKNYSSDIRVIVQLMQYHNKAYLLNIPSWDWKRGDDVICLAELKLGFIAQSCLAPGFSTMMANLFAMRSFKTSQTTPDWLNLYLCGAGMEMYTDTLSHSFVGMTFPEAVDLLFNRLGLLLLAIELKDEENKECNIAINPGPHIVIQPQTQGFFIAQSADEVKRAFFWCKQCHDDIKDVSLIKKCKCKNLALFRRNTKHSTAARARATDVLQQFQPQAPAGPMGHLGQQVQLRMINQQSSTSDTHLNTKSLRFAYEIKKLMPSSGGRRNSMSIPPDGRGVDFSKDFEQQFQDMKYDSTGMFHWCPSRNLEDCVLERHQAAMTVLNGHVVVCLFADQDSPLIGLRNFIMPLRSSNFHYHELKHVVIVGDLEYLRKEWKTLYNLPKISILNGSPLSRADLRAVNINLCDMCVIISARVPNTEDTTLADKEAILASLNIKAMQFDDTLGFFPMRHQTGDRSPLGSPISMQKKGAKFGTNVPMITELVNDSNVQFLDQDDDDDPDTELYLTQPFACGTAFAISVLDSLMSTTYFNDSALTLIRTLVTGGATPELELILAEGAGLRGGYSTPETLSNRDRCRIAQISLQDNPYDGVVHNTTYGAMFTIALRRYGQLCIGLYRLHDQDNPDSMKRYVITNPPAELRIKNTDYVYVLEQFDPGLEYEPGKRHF
For a further series, the system named is Cooperia curticei. The series can be described thus: In vitro assay 6: Cooperia curticei (COOPCU) larval mortality. Conditions: 120 h, read-out: activity (larval mortality).
The test system of the next series is Haemonchus contortus. The series can be described thus: In vitro assay 7: Haemonchus contortus (HAEMCO) larval mortality. Conditions: 120 h, read-out: activity (larval mortality).
The subject of series [3] is Adult Nippostrongylus brasiliensis. The series can be described thus: In vitro assay 3: Nippostrongylus brasiliensis (NIPOBR), acetylcholine esterase readout. Conditions: read-out: activity (reduction of AChE compared to negative control); for inhibition at 1 µg/mL: 1 μg/ml; for inhibition at 10 µg/mL: 10 μg/ml. On the procedure: In Vitro Assay 3: Nippostrongylus Brasiliensis (NIPOBR)
Adult Nippostrongylus brasiliensis were washed with saline buffer containing 100 U/ml penicillin, 0.1 mg/ml streptomycin and 2.5 μg/ml amphotericin B. Test compounds were dissolved in DMSO and worms were incubated in medium in a final concentration of 10 μg/ml (10 ppm) respectively 1 μg/ml (1 ppm). An aliquot of the medium was used to determine the acetylcholine esterase activity in comparison to a negative control. The principle of measuring acetylcholine esterase as readout for anthelmintic activity was described in Rapson et al (1986) and Rapson et al (1987).

In series [4] the test system is Dirofilaria immitis microfilariae. The experiment in a line: In vitro assay 4: Dirofilaria immitis microfilariae (DIROIM L1) motility. The conditions noted are these: 72 h, read-out: EC50 (reduction of motility).

Procedure for C. elegans Slo-1a: In Vitro Assay 1: C. elegans Slo-1a—Action at a Recombinant C. elegans Cell Line
Generation of a Stable C. elegans CHO Cell Line
For transfection with plasmid DNA to express C. elegans Slo-1a (accession number AAL28102) CHO cells were passaged to 40% confluence before adding the transfection solution to the cell culture. The transfection solution included 300 μL OptiMEM (Life Technologies, Nr.: 31985), 2 μL (=6 μg) of plasmid DNA containing the C. elegans Slo 1a gene and 9 μL FugeneHD (Promega, Nr.: E2311), and was added to the cells prior to incubation for 48 hours at 37° C., 5% CO2. The transfection medium was exchanged for the selection medium which contains additional G418 (2 mg/ml, Invitrogen, Nr.: 10131) and the cells were seeded into 384 well plates (300 cells/well). After a few weeks, the remaining surviving cells were tested with a voltage sensitive dye (Membrane Potential Assay Kit, Molecular Devices Nr.: R8034) for K+ channel expression. Positive cell clones were purified by the limited dilution technique. For this the clone with the highest and most robust signal in the voltage sensitive dye assay was further subcloned (incubated) in 384 well plates (0.7 cells/well) in order to obtain clonal purity. This generated a final stable CHO cell line expressing the C. elegans Slo-1a.
Cells were cultured at 37° C., and 5% CO2 in MEMalpha with Glutamax I (Invitrogen, Nr.: 32571), supplemented with 10% (v/v) heat inactivated fetal bovine serum (Invitrogen, Nr.: 10500), G418 (1 mg/ml. Invitrogen. Nr.: 10131). Cells were detached using Accutase (Sigma. Nr.: A6964).
Membrane Potential Measurements
Laboratory compound testing was performed on 384-well microtiter plates (MTPs, Greiner, Nr.: 781092), 8000 cells/well were plated onto 384-well MTPs and cultured for 20 to 24 hours at 37° C., and 5% CO2. After removal of the cell culture medium, the cells were washed once with tyrode (150 mM NaCl, 0.3 mM KCl, 2 mM CaCl2. 1 mM MgCl2. 0.8 mM NaH2PO4, 5 mM Glucose, 28 mM Hepes, pH 7.4) and then loaded with the voltage sensitive dye of the Membrane Potential Assay Kit diluted in tyrode for 1 h at room temperature.
After starting the measurement of fluorescence using a FLIPR Tetra (Molecular Devices, Exc. 510-545 nm, Emm. 565-625 nm), test compounds were added followed by the addition of KCl tyrode (final assay concentration: 70 mM KCl, 2 mM CaCl2, 1 mM MgCl2, 0.8 mM NaH2PO4, 5 mM Glucose, 28 mM Hepes, pH 7.4, including the voltage sensitive dye). The measurement was completed after 7 minutes.
The data were evaluated by using the ActivityBase XLfit software (IDBS) for curve fitting and calculation of the half-maximal effective concentration (EC50) and are reported as negative decadic logarithm (pE50).
Procedure for Cooperia curticei: In Vitro Assay 6: Cooperia curticei (COOPCU)
Solvent: Dimethyl Sulfoxide
Approximately 40 nematode larvae (Cooperia curticei) are transferred into a test tube containing the compound solution.
After 5 days percentage of larval mortality is recorded. 100% efficacy means all larvae are killed; 0% efficacy means no larvae are killed.
Procedure for Haemonchus contortus: In Vitro Assay 7: Haemonchus contortus (HAEMCO)
Solvent: Dimethyl Sulfoxide
Approximately 40 larvae of the red stomach worm (Haemonchus contortus) are transferred into a test tube containing compound solution.
After 5 days the percentage of larval mortality is recorded. 100% efficacy means all larvae are killed, 0% efficacy means no larvae are killed.

By chromatographic logP is commonly meant lipophilicity estimated from chromatographic retention. A high value points to a more lipophilic compound. `O=C(N[C@H]1CCOc2ccccc21)c1cnc2c(Br)c(F)ccc2c1Cl` [Intermediate 14A, 8-Bromo-4-chloro-N-[(4S)-3,4-dihydro-2H-chromen-4-yl]-7-fluoroquinoline-3-carboxamide] returned a chromatographic logP in series [1] of 3.18.

What is called EC50 is the midpoint of the concentration-response curve. A word on the mortality: it is the share of the test organisms that died. Consider `O=C(N[C@H]1CCOc2ccccc21)c1cnc2c(-c3cc(F)cc(F)c3F)cccc2c1C1CCOCC1` [Example 2, N-[(4S)-3,4-Dihydro-2H-chromen-4-yl]-4-(tetrahydro-2H-pyran-4-yl)-8-(2,3,5-trifluorophenyl)quinoline-3-carboxamide], for which the EC50 was less than 0.1 µg/mL in series [2], 3.16 to 31.6 nM on D. immitis Slo-1, less than 3.16 nM at C. elegans Slo-1a and less than 0.1 µg/mL in series [4]. Also, the mortality at 0.8 ppm in the series on Cooperia curticei was 100%. Further, the mortality at 4 ppm with Cooperia curticei is 100%; with Haemonchus contortus, 90%. Further, the mortality at 20 ppm in the series with Haemonchus contortus turned out to be 90%. Further, in series [3], the inhibition at 1 µg/mL was more than 80%. For the same compound, the inhibition at 10 µg/mL in series [3] was more than 80%.

With `O=C(N[C@H]1CCOc2ccccc21)c1cnc2c(-c3cc(F)cc(F)c3F)c(F)ccc2c1N1CC(F)C1` [Example 5, N-[(4S)-3,4-Dihydro-2H-chromen-4-yl]-7-fluoro-4-(3-fluoroazetidin-1-yl)-8-(2,3,5-trifluorophenyl)quinoline-3-carboxamide], the EC50 is less than 0.1 µg/mL in series [2], 3.16 to 31.6 nM on D. immitis Slo-1, 3.16 to 31.6 nM at C. elegans Slo-1a and less than 0.1 µg/mL in series [4]. The chromatographic logP in series [1] amounted to 1.93. The inhibition at 1 µg/mL in series [3] is more than 80%. For the same compound, the inhibition at 10 µg/mL in series [3] was more than 80%.

`O=C(N[C@H]1CCOc2ccccc21)c1cnc2c(Br)c(F)ccc2c1N1CC(F)C1` [Intermediate 15A, 8-Bromo-N-[(4S)-3,4-dihydro-2H-chromen-4-yl]-7-fluoro-4-(3-fluoroazetidin-1-yl)quinoline-3-carboxamide]: the chromatographic logP in series [1] is 1.29.

As for `O=C(N[C@H]1CCOc2ccccc21)c1cnc2c(-c3cc(F)cc(F)c3F)cccc2c1C1=CCOCC1` [Example 1, N-[(4S)-3,4-Dihydro-2H-chromen-4-yl]-4-(3,6-dihydro-2H-pyran-4-yl)-8-(2,3,5-trifluorophenyl)quinoline-3-carboxamide], the EC50 in series [2] is less than 0.1 µg/mL; at D. immitis Slo-1 it was 31.6 to 316 nM; on C. elegans Slo-1a, less than 3.16 nM; in series [4], less than 0.1 µg/mL. For the same compound, the mortality at 0.8 ppm in the series with Cooperia curticei was 90%. In the series with Cooperia curticei, the mortality at 4 ppm turned out to be 90%. Also, the mortality at 20 ppm was 90% in the series on Cooperia curticei and 80% with Haemonchus contortus. In series [3], the inhibition at 1 µg/mL was more than 80%.
